Measured values: ChEMBL document CHEMBL5344477, “Discovery of benzoheterocyclic-substituted amide derivatives as apoptosis signal-regulating kinase 1 (ASK1) inhibitors” (RSC Med Chem, 2024)

Experiments:
[1] = Metabolic stability in human liver microsomes assessed as half life at 1 uM measured upto 90 mins by LC-MS/MS analysis; type: ADME, Microsome
[2] = Metabolic stability in human liver microsomes assessed as clearance at 1 uM measured upto 90 mins by LC-MS/MS analysis; type: ADME, Microsome; conditions: read-out: CLH
[3] = Metabolic stability in rat liver microsomes assessed as half life at 1 uM measured upto 90 mins by LC-MS/MS analysis; type: ADME, Microsome
[4] = Metabolic stability in rat liver microsomes assessed as clearance at 1 uM measured upto 90 mins by LC-MS/MS analysis; type: ADME, Microsome; conditions: read-out: CLH
[5] = Half life in Sprague-Dawley rat at 5 mg/kg, po measured upto 24 hrs by LC-MS/MS analysis; type: ADME, organism-based; conditions: in vivo
[6] = Half life in Sprague-Dawley rat at 1 mg/kg, iv measured upto 24 hrs by LC-MS/MS analysis; type: ADME, organism-based; conditions: in vivo
[7] = Cmax in Sprague-Dawley rat at 5 mg/kg, po measured upto 24 hrs by LC-MS/MS analysis; type: ADME, organism-based; parameters: dose 5 mg/kg, time < 24 hrs, route po; conditions: in vivo
[8] = Cmax in Sprague-Dawley rat at 1 mg/kg, iv measured upto 24 hrs by LC-MS/MS analysis; type: ADME, organism-based; parameters: dose 1 mg/kg, time < 24 hrs, route iv; conditions: in vivo
[9] = AUClast in Sprague-Dawley rat at 5 mg/kg, po measured upto 24 hrs by LC-MS/MS analysis; type: ADME, organism-based; parameters: dose 5 mg/kg, time < 24 hrs, route po; conditions: in vivo
[10] = AUClast in Sprague-Dawley rat at 1 mg/kg, iv measured upto 24 hrs by LC-MS/MS analysis; type: ADME, organism-based; parameters: dose 1 mg/kg, time < 24 hrs, route iv; conditions: in vivo
[11] = Volume of distribution at steady state in Sprague-Dawley rat at 1 mg/kg, iv measured upto 24 hrs by LC-MS/MS analysis; type: ADME, organism-based; conditions: in vivo, read-out: Vdss
[12] = Apparent […] clearance in Sprague-Dawley rat at 1 mg/kg, iv measured upto 24 hrs by LC-MS/MS analysis; type: ADME, organism-based; conditions: in vivo
[13] = Oral bioavailability in Sprague-Dawley rat at 5 mg/kg measured upto 24 hrs by LC-MS/MS analysis; type: ADME, organism-based; conditions: in vivo
[14] = Half life in Sprague-Dawley rat at 2.5 mg/kg, po measured upto 24 hrs by LC-MS/MS analysis; type: ADME, organism-based; conditions: in vivo
[15] = Half life in Sprague-Dawley rat at 0.5 mg/kg, iv measured upto 24 hrs by LC-MS/MS analysis; type: ADME, organism-based; conditions: in vivo
[16] = Cmax in Sprague-Dawley rat at 2.5 mg/kg, po measured upto 24 hrs by LC-MS/MS analysis; type: ADME, organism-based; parameters: dose 2.5 mg/kg, time < 24 hrs, route po; conditions: in vivo
[17] = Cmax in Sprague-Dawley rat at 0.5 mg/kg, iv measured upto 24 hrs by LC-MS/MS analysis; type: ADME, organism-based; parameters: time < 24 hrs, dose 0.5 mg/kg, route iv; conditions: in vivo
[18] = AUClast in Sprague-Dawley rat at 2.5 mg/kg, po measured upto 24 hrs by LC-MS/MS analysis; type: ADME, organism-based; parameters: dose 2.5 mg/kg, time < 24 hrs, route po; conditions: in vivo
[19] = AUClast in Sprague-Dawley rat at 0.5 mg/kg, iv measured upto 24 hrs by LC-MS/MS analysis; type: ADME, organism-based; parameters: time < 24 hrs, dose 0.5 mg/kg, route iv; conditions: in vivo
[20] = Volume of distribution at steady state in Sprague-Dawley rat at 0.5 mg/kg, iv measured upto 24 hrs by LC-MS/MS analysis; type: ADME, organism-based; conditions: in vivo, read-out: Vdss
[21] = Apparent […] clearance in Sprague-Dawley rat at 0.5 mg/kg, iv measured upto 24 hrs by LC-MS/MS analysis; type: ADME, organism-based; conditions: in vivo
[22] = Oral bioavailability in Sprague-Dawley rat at 2.5 mg/kg measured upto 24 hrs by LC-MS/MS analysis; type: ADME, organism-based; conditions: in vivo

SMILES | half-life at 1 µM [1] | CLint scaled at 1 µM [2] | half-life at 1 µM [3] | CLint scaled at 1 µM [4] | half-life [5] | half-life [6] | Cmax [7] | Cmax [8] | AUC(0-t) at 24 h [9] | AUC(0-t) at 24 h [10] | Vd [11] | CL/F [12] | bioavailability [13] | half-life [14] | half-life [15] | Cmax [16] | Cmax [17] | AUC(0-t) at 24 h [18] | AUC(0-t) at 24 h [19] | Vd [20] | other results
O=C1CCCc2cc(F)c(C(=O)Nc3cccc(-c4nncn4C4CC4)n3)cc2N1 | 11.9 h | 2.4 mL/min/kg | 8.87 h | 4.7 mL/min/kg | 3.82 h | 0.71 h | 829 ng/mL | 1220 ng/mL | 2720 ng·h/mL | 1170 ng·h/mL | 0.7 L/kg | 14.2 mL/min/kg | 47% |  |  |  |  |  |  |  | 
CC(C)n1cnnc1-c1cccc(NC(=O)c2cc3c(cc2F)C(C)(C)CC(=O)N3C)n1 | 2.71 h | 10.7 mL/min/kg | 1.64 h | 25.3 mL/min/kg | 5.02 h | 1.12 h | 550 ng/mL | 418 ng/mL | 3180 ng·h/mL | 789 ng·h/mL | 1.82 L/kg | 20.8 mL/min/kg | 89.1% |  |  |  |  |  |  |  | 
CC(C)n1cnnc1-c1cccc(NC(=O)c2cc3c(cc2F)OC(C)(C)C(=O)N3C)n1 | 5.26 h | 5.5 mL/min/kg | 1.52 h | 27.3 mL/min/kg |  |  |  |  |  |  |  |  |  | 1.3 h | 0.71 h | 417 ng/mL | 239 ng/mL | 767 ng·h/mL | 218 ng·h/mL | 1.88 L/kg | CL/F [21]: 38 mL/min/kg; bioavailability [22]: 72.2%
CC(C)n1cnnc1-c1cccc(NC(=O)c2cc3c(cc2F)OC(C)(C)C(=O)N3)n1 |  |  |  |  |  |  |  |  |  |  |  |  |  | 1.39 h | 0.74 h | 554 ng/mL | 350 ng/mL | 1260 ng·h/mL | 276 ng·h/mL | 1.35 L/kg | CL/F [21]: 30 mL/min/kg; bioavailability [22]: 95%
CC(C)n1cnnc1-c1cccc(NC(=O)c2cc3c(cc2F)CCCC(=O)N3)c1 | 8.31 h | 3.5 mL/min/kg | 6.69 h | 6.2 mL/min/kg | 1.84 h | 0.72 h | 109 ng/mL | 420 ng/mL | 252 ng·h/mL | 320 ng·h/mL | 2.19 L/kg | 52 mL/min/kg | 16% |  |  |  |  |  |  |  | 
CC(C)n1cnnc1-c1cccc(NC(=O)c2cc3c(cc2F)CCCC(=O)N3)n1 | 8.8 h | 3.3 mL/min/kg | 6.24 h | 6.6 mL/min/kg | 1.63 h | 1.24 h | 1270 ng/mL | 1070 ng/mL | 4830 ng·h/mL | 1270 ng·h/mL | 1.07 L/kg | 12.8 mL/min/kg | 77.7% |  |  |  |  |  |  |  | 
CC(CO)n1cnnc1-c1cccc(NC(=O)c2cc3c(cc2F)CCCC(=O)N3C)n1 (centres undefined) | 3.41 h | 8.5 mL/min/kg | 2.96 h | 14 mL/min/kg | 1.51 h | 0.63 h | 28 ng/mL | 440 ng/mL | 61 ng·h/mL | 216 ng·h/mL | 2.36 L/kg | 76.7 mL/min/kg | 5.9% |  |  |  |  |  |  |  | 
CN1C(=O)CCCc2cc(F)c(C(=O)Nc3cccc(-c4nncn4C4CC4)n3)cc21 | 2.6 h | 11.1 mL/min/kg | 3.15 h | 13.2 mL/min/kg | 1.97 h | 1.22 h | 1850 ng/mL | 799 ng/mL | 7530 ng·h/mL | 1340 ng·h/mL | 1.14 L/kg | 12.2 mL/min/kg | 121% |  |  |  |  |  |  |  | 
O=C1CCc2cc(F)c(C(=O)Nc3cccc(-c4nncn4C4CC4)n3)cc2N1 | 7.54 h | 3.8 mL/min/kg | 4.07 h | 10.2 mL/min/kg |  |  |  |  |  |  |  |  |  | 2 h | 0.72 h | 345 ng/mL | 447 ng/mL | 1330 ng·h/mL | 469 ng·h/mL | 0.96 L/kg | CL/F [21]: 17.7 mL/min/kg; bioavailability [22]: 57.4%
CC(C)n1cnnc1-c1cccc(NC(=O)c2cc3c(cc2F)CCCC(=O)N3C)c1 | 3.72 h | 7.8 mL/min/kg | 3.97 h | 10.4 mL/min/kg | 1.44 h | 0.8 h | 341 ng/mL | 758 ng/mL | 712 ng·h/mL | 449 ng·h/mL | 1.44 L/kg | 36.8 mL/min/kg | 33.2% |  |  |  |  |  |  |  | 
O=C1COc2cc(F)c(C(=O)Nc3cccc(-c4nncn4C4CC4)n3)cc2N1 | 7.24 h | 4 mL/min/kg | 4.08 h | 10.2 mL/min/kg |  |  |  |  |  |  |  |  |  | 2.07 h | 0.97 h | 832 ng/mL | 489 ng/mL | 2390 ng·h/mL | 592 ng·h/mL | 1.07 L/kg | CL/F [21]: 14 mL/min/kg; bioavailability [22]: 83.6%
